The values below come from patent US20020119136A1, “Antimicrobial peroxidase compositions” (Novozymes A/S, priority 1996, published 2002).

Test [1] relates to Staphylococcus aureus ATCC 25923. Nature of the test: Antibacterial activity of rCIP and KI against S. aureus (Malthus, 2^3 factorial design). In kind it is cell-based. The settings on record: components present at rCIP 0.5 POXU/ml, H2O2 0.5 mM, KI 0.5 mM; 15 min, 40 C, pH 6.0; untreated 2.9*10^8. As for the experimental part:
(§1) The antibacterial activity of rCIP was tested in phosphate buffer (pH 6.0) against Pseudomonas aeruginosa ATCC 10146 and Staphylococcus aureus ATCC 25923 with potassium iodide as electron donor, and hydrogen peroxide was added as electron acceptor. The cells (approximately 10^7 cfu/ml) were incubated with enzyme for 15 min at 40?C., and the experiment was carried out using a 2^3 factorial design reproduced two times. The bactericidal activity was determined by incubation in Malthus.

The subject of test [2] is Pseudomonas aeruginosa ATCC 10146. Nature of the test: Antibacterial activity of rCIP and KI against P. aeruginosa (Malthus, 2^3 factorial design). The format is cell-based. Particulars: components present at rCIP 0.5 POXU/ml, H2O2 0.5 mM, KI 0.5 mM; 15 min, 40 C, pH 6.0; approx 10^7 cfu/ml; untreated 1.7*10^7. As for the experimental part: as §1
A further test deals with P. fluorescens. The settings on record: rCIP 3 POXU/ml, enhancing agent 5 mM, 15 min, pH 6.0, 40 C; for bactericidal activity of rCIP with the enhancing agent: glucose oxidase/glucose or 5 mM H2O2, 10^4 cfu/ml.

Method for P. fluorescens: In order to avoid interference with substrate components, the experiment was carried out in a buffer instead of in a growth substrate.
The bactericidal activity was determined by plate counting and by incubation in Malthus. The detection times measured by the Malthus instrument were converted to cfu/ml by a standard curve.
Indirect Malthus measurements were used when enumerating total survival cells (Malthus Flexi M2060, Malthus Instrument Limited). 3 ml of growth medium was transferred to the outer chamber of the indirect Malthus cells, and 0.5 ml of sterile KOH (0.1 M) was transferred to the inner chamber. The cell suspensions were after enzyme treatment transferred to the outer chamber of the Malthus cell. As cells are growing in the outer chamber they produce CO2 which will dissolve in the KOH in the inner chamber and thereby change the conductance of the KOH. The amount of CO2 formed by the respiring cells surviving the enzyme treatment was used for estimating the number of viable cells. When the conductance change is measurable by the Malthus, a detection time (dt) will be recorded. The dt's were converted to colony counts by use of a calibration curve relating cfu/ml to dt (FIG. 1).

Turning to `OO` [H2O2, hydrogen peroxide], the survivors in test [1] is reported as 1.3*10^8 cfu/ml; in test [2], 1.2*10^7 cfu/ml.

Regarding `[I-].[K+]` [KI, potassium iodide], in the test with P. fluorescens (H2O2 source, by plate counts and Malthus), the bactericidal activity came out at 100%. In addition, the “bactericidal activity of rCIP with the enhancing agent” value (shortened to “bactericidal activity of rCIP”) in the test with P. fluorescens is “statistical significant bactericidal activity”. The survivors is listed as 2.0*10^8 cfu/ml in test [1] and 2.1*10^7 cfu/ml in test [2].

For `N#C[S-].[Na+]` [NaSCN, sodium thiocyanate], the “bactericidal activity of rCIP” value in the test on P. fluorescens is listed as “statistical significant bactericidal activity”.

With `O=C(O)CCN1c2ccccc2Sc2ccccc21` [PPT, 10-phenothiazine propionic acid], the “bactericidal activity of rCIP” value in the test on P. fluorescens is listed as “slight bactericidal activity”.

B1: rCIP: Coprinus cinereus, IFO 8371, recombinant peroxidase (rCIP) available from Novo Nordisk A/S (protein, UniProt P28314 21-363, looked up)
Peroxidase: QGPGGGGSVTCPGGQSTSNSQCCVWFDVLDDLQTNFYQGSKCESPVRKILRIVFHDAIGFSPALTAAGQFGGGGADGSIIAHSNIELAFPANGGLTDTVEALRAVGINHGVSFGDLIQFATAVGMSNCPGSPRLEFLTGRSNSSQPSPPSLIPGPGNTVTAILDRMGDAGFSPDEVVDLLAAHSLASQEGLNSAIFRSPLDSTPQVFDTQFYIETLLKGTTQPGPSLGFAEELSPFPGEFRMRSDALLARDSRTACRWQSMTSSNEVMGQRYRAAMAKMSVLGFDRNALTDCSDVIPSAVSNNAAPVIPGGLTVDDIEVSCPSEPFPEIATASGPLPSLAPAP
For the molecule B1, the values for the survivors in test [1] and in test [2] were 1.6*10^8 cfu/ml and 2.6*10^7 cfu/ml, respectively.
